What all share (format): cell-based
Assay [1] deals with SARS-CoV-2.
Assay [2] has as its system Powassan virus.
Assay [3] has as its system Dengue virus. The assay can be described thus: Dengue virus infection of U2OS cells, qPCR. The conditions noted are these: 10 μM, treated 2 hours before infection, MOI of 1, ~16-18 hours (FIG. 6). (Quantitative PCR measures a nucleic acid by following its amplification.)
The test system of assay [4] is androgen receptor (AR).
Assay [5] deals with Zika virus. The assay can be described thus: Zika virus infection of U2OS cells, qPCR. The following applies: 10 μM, treated 2 hours before infection, MOI of 1, ~16-18 hours (FIG. 7).

Entries after “also recorded” stand apart in the source; their conditions may differ.

Turning to `COc1ccc(CCN2CCN(CCCc3ccccc3)CC2)cc1OC` [SA4503, 1-(3,4-dimethoxyphenethyl)-4-(3-phenylpropyl) piperazine], the “effect on SARS-CoV-2 infection (in words)” value (from here on “effect”) in assay [1] is recorded as “did not block infection”.

On to `N=C(NCCCOc1ccc(F)cc1)Nc1ccc(Cl)cc1` [CT189], for which the “Powassan virus infection (fold change, qPCR)” value in assay [2] is given as “inhibit”. Moreover, the “Dengue virus infection (fold change, qPCR)” value in assay [3] is “inhibit”. For the same compound, in assay [4], the “DHT induced AR transcriptional activity” value was “inhibition”. Also, in assay [1], the “blocked SARS-CoV-2 infection (fold)” value is on record as 1,000 fold and the “effect” value is recorded as “inhibit SARS-CoV-2 infection”. In addition, in assay [5], the “Zika virus infection (fold change, qPCR)” value is listed as “inhibit”.

On to `O=C(OCCN1CCOCC1)C1(c2ccccc2)CCCCC1` [PRE084, 2-morpholin-4-ylethyl 1-phenylcyclohexane-1-carboxylate], for which the “effect” value in assay [1] was “did not block infection”.

On to `O=C(CCCN1CCC(O)(c2ccc(Cl)cc2)CC1)c1ccc(F)cc1` [Haloperidol, 4-[4-(4-chlorophenyl)-4-hydroxypiperidin-1-yl]-1-(4-fluorophenyl)butan-1-one], for which the “effect” value in assay [1] is listed as “clear but modest antiviral effect”.

`Cc1cc(OCCN2CCOCC2)nn1-c1ccc2ccccc2c1` [Compound S1RA, 4-[2-[[5-methyl-1-(2-naphthalenyl)-1H-pyrazol-3-yl]oxy]ethyl]morpholine]: the “effect” value in assay [1] is given as “did not block infection; also recorded: does not block infection”.

As to `N=C(Nc1ccc(I)cc1)NC1C2CC3CC(C2)CC1C3` (stereo not shown) [IPAG], the “DHT induced AR transcriptional activity” value in assay [4] is “inhibition”. In addition, in assay [1], the “blocked SARS-CoV-2 infection (fold)” value is 1,000 fold and the “effect” value is listed as “inhibit SARS-CoV-2 infection”.

Source of the values: patent US20230127965A1, “METHODS FOR TREATING, AMELIORATING, OR PREVENTING VIRAL INFECTIONS” (Thomas Jefferson University, priority 2020, published 2023).
